pIC50: −log10 of the molar value.
Key:
p70 S6 Kinase = biological target: T1, p70 S6 Kinase (Homo sapiens, UniProt P23443, T412E); assay: p70 S6 Kinase In Vitro Enzyme Assay (Transcreener Kinase ADP-FP); type: biochemical; details: 25 micromolar ATP; read-out: IC50 against p70 S6 Kinase
T1 construct: amino acids 1-421, T412E; His tag (N)
Description: Compound IC50 values against p70 S6 Kinase target are determined using the p70 S6 Transcreener™ Kinase ADP-FP Assay. This assay assesses the activity of p70 S6 kinase in the presence of compound inhibitors by measuring the concentration of adenosine diphosphate (ADP) formed in a kinase reaction. The kinase reactions (25 μL reaction volumes) are performed in 96-well half-area black polystyrene plates. Adenosine triphosphate (ATP) is added to start the reactions. Final reaction conditions are 10 millimolar N-2-hydroxyethyl-piperazine-N′-2-ethanesulfonic acid (HEPES) pH 7.5, 0.005% TRITON™ X-100, 0.082 millimolar ethyleneglycol tetraacetic acid (EGTA), 1 millimolar dithiothreitol, 10 millimolar magnesium chloride, 4 micromolar substrate peptide, 25 micromolar ATP, active p70 S6 Kinase (Human recombinant, amino acids 1-421, T412E, N-terminal histidine-tagged), 4% DMSO and serial dilutions of compound (diluted 1:3 from 20,000 to 1 nanomolar). […] Quenched reactions are incubated for 4-16 hours, and then read in a Tecan Ultra Evolution plate reader in Fluorescence Polarization mode using polarizing filters of Ex612nm and Em633nm wavelength. […] The IC50 value for each compound is derived using percent inhibition data which is calculated using the micromolar ADP reaction data relative to on-plate controls (active enzyme versus 100 millimolar inhibited enzyme controls). […]

[1] = tested on: Phosphorylation of p70 S6K(T389); assay: p70 S6K/AKT In Vivo Target Inhibition, U87MG xenograft, p-p70 S6K; parameters: species or system athymic nude mice; details: Mus musculus, U-87 MG, IV Dose 12.5 mpk, U87MG tumors
Description: (§1) U87MG human glioblastoma cells (5×106) are subcutaneously implanted into the flank of athymic nude mice in 0.2 mL of matrigel. Two weeks post-implantation, mice are dosed orally or parenterally according to a time course, single dose/single time point, or dose response protocol for the determination of TMED50 (threshold minimum effective dose). Tumors are flash frozen at harvest and blood is collected for the determination of parent compound plasma exposure and the calculation of TMEC50 (threshold minimum effective concentration) in the case of dose response studies. Tumors or tissues are pulverized in liquid N2 and lysed in 400 μL of XY Lysis Buffer (10 μg/mL Leupeptin, 10 μg/mL Trypsin-Chymotrypsin Inhibitor, 10 μg/mL Tosyl phenyl-alanyl chloromethyl ketone, 10 μg/mL Aprotinin, 60 mM Beta-Glycerol Phosphate, 1% Triton X100, 25 mM Tris pH 7.5, 2.5 mM Pyrophosphate, 150 mM NaCl, 2 mM p-tosyl-L-arginine methyl ester, 15 mM para-nitrophenyl phosphate, 5 mM Benzamidine, 1 mM Na Vanadate, 10 mM NaF, 50 μg/mL phenyl-methane sulfonyl fluoride, 1 mM 1,4-Dithiothreitol (DTT), 15 mM EDTA pH 8.0, 5 mM EGTA pH 8.0, 1 μM Microcystin, 1 μM Okadaic Acid, and 1 Roche Complete protease inhibitor mini-tablet per 10 mL) using Lysing Matrix D tubes (MP Biomedicals, Solon, Ohio, cat#6913-500) and a BIO101 Thermo Savant Fast Prep FP12. Lysates are aliquoted and either assayed immediately or stored at −80° C. for later testing. In Vivo Target Inhibition of p70 S6K and AKT is measured utilizing Meso Scale Discovery (Gaithersburg, Md.) ELISA technology to assess effects on phosphorylation of the serine 240/244 site of the downstream effector S6RP. Phosphorylation of p70 S6K(T389), AKT(5473) and GSK3β(S9) is also assessed using this technology in a multiplex format. In summary, 20 μg of lysate is added to carbon electrode containing 96-well plates pre-spotted with the appropriate capture antibodies. The protein of interest is probed using a ruthenium labeled detection antibody. Upon the passage of current over the electrode in the presence of read buffer containing the co-reactant TPA, electro-chemiluminescence results in the generation of light which is quantified and recorded using the MSD Sector 6000 instrument. For each study, percent inhibitions are calculated relative to the vehicle control group and ANOVA analysis is performed using the JMP software package for the determination of statistical significance.

pAKT S473 = assay: p70 S6K/AKT In Vivo Target Inhibition, U87MG xenograft, pAKT; parameters: species or system athymic nude mice; details: Mus musculus, U-87 MG, IV Dose 12.5 mpk, U87MG tumors
Description: as §1

T1 sequence (P23443 1-421 T412E): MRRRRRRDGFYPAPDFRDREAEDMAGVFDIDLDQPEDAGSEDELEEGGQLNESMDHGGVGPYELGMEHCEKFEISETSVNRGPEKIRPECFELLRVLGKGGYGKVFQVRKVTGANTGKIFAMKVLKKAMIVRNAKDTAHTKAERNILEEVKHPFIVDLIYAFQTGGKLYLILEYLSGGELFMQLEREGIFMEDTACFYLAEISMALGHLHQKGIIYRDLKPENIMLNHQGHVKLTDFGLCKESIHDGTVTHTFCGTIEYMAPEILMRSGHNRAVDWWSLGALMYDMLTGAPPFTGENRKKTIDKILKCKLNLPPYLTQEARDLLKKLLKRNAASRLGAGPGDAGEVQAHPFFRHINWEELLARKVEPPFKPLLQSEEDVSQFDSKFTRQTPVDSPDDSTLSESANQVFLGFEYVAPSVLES

- pIC50 (p70 S6 Kinase): 8.15
Structure (SMILES): CN(C)CCn1cc(-c2ccc(F)c(C(F)(F)F)c2)nc1C1CCN(c2ncnc3c2C(C)(C)C(=O)N3)CC1 [Example 31]
- inhibition at 12.5 mg/kg ([1]; 1 hr post IV dose): 77.3%
- inhibition at 12.5 mg/kg ([1]; 2 hr post IV dose): 76.1%
- inhibition at 12.5 mg/kg ([1]; 4 hr post IV dose): 76.1%
- inhibition at 12.5 mg/kg ([1]; 6 hr post IV dose): 76.1%
- inhibition at 12.5 mg/kg ([1]; 8 hr post IV dose): 70.7%
- inhibition at 12.5 mg/kg ([1]; 24 hr post IV dose): 61.6%
- inhibition at 12.5 mg/kg (pAKT S473; 1 hr post IV dose): 4%
- inhibition at 12.5 mg/kg (pAKT S473; 2 hr post IV dose): -22.3%
- inhibition at 12.5 mg/kg (pAKT S473; 4 hr post IV dose): -19.2%
- inhibition at 12.5 mg/kg (pAKT S473; 6 hr post IV dose): -26.3%
- inhibition at 12.5 mg/kg (pAKT S473; 8 hr post IV dose): -9.4%
- inhibition at 12.5 mg/kg (pAKT S473; 24 hr post IV dose): 22.6%

From patent publication US8148387B2, “AKT and P70 S6 kinase inhibitors” (Eli Lilly and Company, priority 2008, dated 2012)
